Values quoted from earlier work as cited in patent publication US20090247603A1, “Stabilized pharmaceutical compositions comprising an HMG-CoA reductase inhibitor” (Orbus Pharma, Inc., priority 2005, published 2009).

Conditions: following oral administration

- dose recovered in urine: Less than 2%
SMILES: CC(C)c1c(C(=O)Nc2ccccc2)c(-c2ccccc2)c(-c2ccc(F)cc2)n1CC[C@@H](O)C[C@@H](O)CC(=O)[O-].CC(C)c1c(C(=O)Nc2ccccc2)c(-c2ccccc2)c(-c2ccc(F)cc2)n1CC[C@@H](O)C[C@@H](O)CC(=O)[O-].[Ca+2] (relative stereo) [atorvastatin calcium, (R—(R*,R*))-2-(4-fluorophenyl)-[beta],[delta]-dihydroxy-5-(1-methylethyl)-3-phenyl-4((phenylamino)carbonyl)-1H-pyrole-1-heptanoic acid hemi calcium salt]
